Results published in ChEMBL document CHEMBL2074478, “Cisplatin induces renal expression of P-glycoprotein and canalicular multispecific organic anion transporter” (Am J Physiol, 1999).

How the values were obtained:
[1] = target: Multidrug resistance protein 1a (Rattus norvegicus) (UniProt Q6PSM0); assay: TP_TRANSPORTER: Western in vivo, liver of SD rat; format: functional, organism-based; settings: Sprague-Dawley
[2] = target: Multidrug resistance protein 1a (Rattus norvegicus) (UniProt Q6PSM0); assay: (§1) TP_TRANSPORTER: Western in vivo, kidney of SD rat; format: functional, organism-based; settings: Sprague-Dawley
[3] = target: Multidrug resistance protein 1a (Rattus norvegicus) (UniProt Q6PSM0); assay: TP_TRANSPORTER: Western in vivo, intestine of SD rat; format: functional, organism-based; settings: Sprague-Dawley
[4] = target: ATP-binding cassette sub-family C member 2 (Rattus norvegicus, UniProt Q63120); assay: as §1; format: functional, organism-based, Sprague-Dawley
ATP-binding cassette sub-family C member 2, sequence (Q63120 whole entry): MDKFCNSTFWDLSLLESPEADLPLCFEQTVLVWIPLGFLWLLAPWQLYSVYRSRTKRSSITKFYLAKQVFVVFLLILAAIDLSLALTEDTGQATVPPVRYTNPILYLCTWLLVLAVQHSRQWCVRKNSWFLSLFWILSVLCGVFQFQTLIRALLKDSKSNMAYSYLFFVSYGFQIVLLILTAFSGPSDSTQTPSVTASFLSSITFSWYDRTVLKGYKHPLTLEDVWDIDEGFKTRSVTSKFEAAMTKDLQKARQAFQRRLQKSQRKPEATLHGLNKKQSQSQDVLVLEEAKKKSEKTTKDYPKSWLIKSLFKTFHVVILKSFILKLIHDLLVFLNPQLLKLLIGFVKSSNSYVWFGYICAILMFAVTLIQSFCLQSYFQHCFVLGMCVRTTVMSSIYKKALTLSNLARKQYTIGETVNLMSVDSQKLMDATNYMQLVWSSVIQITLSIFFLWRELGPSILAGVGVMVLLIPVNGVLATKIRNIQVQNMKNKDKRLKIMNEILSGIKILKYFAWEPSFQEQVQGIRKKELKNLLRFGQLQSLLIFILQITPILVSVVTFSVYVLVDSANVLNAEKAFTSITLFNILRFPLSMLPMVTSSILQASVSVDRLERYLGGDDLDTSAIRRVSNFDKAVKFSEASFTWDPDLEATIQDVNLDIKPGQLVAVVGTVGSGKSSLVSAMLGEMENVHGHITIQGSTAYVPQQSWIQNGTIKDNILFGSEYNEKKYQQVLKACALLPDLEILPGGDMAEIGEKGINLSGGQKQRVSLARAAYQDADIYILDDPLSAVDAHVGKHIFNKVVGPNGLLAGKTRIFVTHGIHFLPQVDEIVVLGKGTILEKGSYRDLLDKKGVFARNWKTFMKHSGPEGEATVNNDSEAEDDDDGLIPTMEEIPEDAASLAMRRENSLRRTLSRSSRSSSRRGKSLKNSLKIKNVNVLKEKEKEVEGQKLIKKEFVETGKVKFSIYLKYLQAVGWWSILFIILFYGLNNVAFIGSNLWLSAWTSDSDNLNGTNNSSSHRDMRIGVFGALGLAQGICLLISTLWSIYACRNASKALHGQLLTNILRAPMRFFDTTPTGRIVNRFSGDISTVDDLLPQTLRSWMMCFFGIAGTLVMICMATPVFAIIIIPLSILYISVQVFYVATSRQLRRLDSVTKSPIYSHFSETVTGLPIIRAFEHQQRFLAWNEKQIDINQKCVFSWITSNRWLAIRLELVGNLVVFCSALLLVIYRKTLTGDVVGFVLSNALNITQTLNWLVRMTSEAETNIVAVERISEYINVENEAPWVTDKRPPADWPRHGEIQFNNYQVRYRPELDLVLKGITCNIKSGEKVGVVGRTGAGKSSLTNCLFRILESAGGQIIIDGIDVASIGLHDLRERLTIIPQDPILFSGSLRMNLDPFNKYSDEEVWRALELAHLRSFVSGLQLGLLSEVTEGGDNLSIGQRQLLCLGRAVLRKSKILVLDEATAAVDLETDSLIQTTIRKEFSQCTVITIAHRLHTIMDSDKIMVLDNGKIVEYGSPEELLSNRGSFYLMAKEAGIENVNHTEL

| Sequence | Activity [1] | Activity [2] | Activity [3] | Activity [4] |
| --- | --- | --- | --- | --- |
| CISPLATIN [listing 1 of 2 here] | inducer [+] | inducer [+] | inducer [+] |  |
| CISPLATIN [listing 2 of 2 here] |  |  |  | inducer [+] |
